Laboratory results taken from ChEMBL document CHEMBL1152145, “The discovery of equipotent PPARalpha/gamma dual activators” (Bioorg Med Chem Lett, 2008).

Experiments:
[1] = target: T1, Peroxisome proliferator-activated receptor delta (Homo sapiens, UniProt Q03181)
T1 sequence (Q03181 whole entry): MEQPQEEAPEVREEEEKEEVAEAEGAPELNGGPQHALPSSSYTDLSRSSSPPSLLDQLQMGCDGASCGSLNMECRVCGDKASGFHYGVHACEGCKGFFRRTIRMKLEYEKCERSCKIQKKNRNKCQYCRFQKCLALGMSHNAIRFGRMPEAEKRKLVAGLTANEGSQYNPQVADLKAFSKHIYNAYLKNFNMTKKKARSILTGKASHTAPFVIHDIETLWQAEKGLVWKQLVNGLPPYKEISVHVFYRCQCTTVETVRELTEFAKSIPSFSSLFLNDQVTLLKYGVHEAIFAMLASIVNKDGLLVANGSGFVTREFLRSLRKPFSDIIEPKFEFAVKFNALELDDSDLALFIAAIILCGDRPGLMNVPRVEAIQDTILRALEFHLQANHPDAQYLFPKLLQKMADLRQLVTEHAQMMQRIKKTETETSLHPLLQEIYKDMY
Description: (§1) Agonist activity at human PPARdelta receptor by cell based transient transfection assay

[2] = target: T2, Peroxisome proliferator-activated receptor alpha (Homo sapiens, UniProt Q07869)
T2 sequence (Q07869 whole entry): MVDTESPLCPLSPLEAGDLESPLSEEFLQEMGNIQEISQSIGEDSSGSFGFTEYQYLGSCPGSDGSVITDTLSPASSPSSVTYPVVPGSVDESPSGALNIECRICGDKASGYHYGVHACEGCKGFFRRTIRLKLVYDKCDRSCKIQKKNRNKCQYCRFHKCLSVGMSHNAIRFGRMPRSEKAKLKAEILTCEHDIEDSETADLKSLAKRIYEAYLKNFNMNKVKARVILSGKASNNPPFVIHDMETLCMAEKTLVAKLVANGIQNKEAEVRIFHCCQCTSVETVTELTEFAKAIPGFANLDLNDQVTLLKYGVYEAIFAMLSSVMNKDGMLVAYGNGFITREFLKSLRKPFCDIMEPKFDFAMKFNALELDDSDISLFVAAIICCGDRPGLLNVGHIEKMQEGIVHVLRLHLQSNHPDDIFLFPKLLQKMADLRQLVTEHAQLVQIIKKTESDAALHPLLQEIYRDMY
Description: Agonist activity at human PPARalpha receptor by cell based transient transfection assay

[3] = target: T3, Peroxisome proliferator-activated receptor gamma (Homo sapiens, UniProt P37231)
T3 sequence (P37231 whole entry): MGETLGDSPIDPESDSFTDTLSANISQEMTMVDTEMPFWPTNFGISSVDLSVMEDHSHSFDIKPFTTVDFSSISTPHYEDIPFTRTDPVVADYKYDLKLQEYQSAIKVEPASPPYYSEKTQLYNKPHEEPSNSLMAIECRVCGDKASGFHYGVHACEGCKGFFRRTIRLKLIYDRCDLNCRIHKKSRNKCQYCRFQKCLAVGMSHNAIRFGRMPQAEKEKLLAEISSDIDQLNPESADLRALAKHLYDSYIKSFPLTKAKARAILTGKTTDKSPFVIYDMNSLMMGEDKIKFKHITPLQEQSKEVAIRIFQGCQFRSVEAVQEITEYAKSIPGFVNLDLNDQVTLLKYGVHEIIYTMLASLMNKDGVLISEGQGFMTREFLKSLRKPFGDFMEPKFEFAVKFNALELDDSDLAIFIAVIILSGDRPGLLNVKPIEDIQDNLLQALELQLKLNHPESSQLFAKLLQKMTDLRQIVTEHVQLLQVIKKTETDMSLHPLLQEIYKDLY
Description: Agonist activity at human PPARgamma receptor by cell based transient transfection assay

[4] = target: T4, Peroxisome proliferator-activated receptor alpha (Mus musculus, UniProt P23204)
T4 sequence (P23204 whole entry): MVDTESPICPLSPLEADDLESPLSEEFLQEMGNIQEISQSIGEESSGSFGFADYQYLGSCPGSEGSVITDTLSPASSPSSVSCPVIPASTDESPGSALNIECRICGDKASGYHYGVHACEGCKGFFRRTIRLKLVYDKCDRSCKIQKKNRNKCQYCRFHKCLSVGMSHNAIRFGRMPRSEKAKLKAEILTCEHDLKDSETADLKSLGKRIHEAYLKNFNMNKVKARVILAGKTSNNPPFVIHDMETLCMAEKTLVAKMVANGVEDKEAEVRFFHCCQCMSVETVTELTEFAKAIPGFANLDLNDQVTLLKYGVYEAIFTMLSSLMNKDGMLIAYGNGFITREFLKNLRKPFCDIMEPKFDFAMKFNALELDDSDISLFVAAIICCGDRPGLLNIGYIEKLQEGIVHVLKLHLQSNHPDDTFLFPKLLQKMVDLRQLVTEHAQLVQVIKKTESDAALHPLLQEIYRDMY
Description: Agonist activity at mouse PPARalpha receptor by cell based transient transfection assay

[5] = target: T5, Peroxisome proliferator-activated receptor gamma (Mus musculus, UniProt P37238)
T5 sequence (P37238 whole entry): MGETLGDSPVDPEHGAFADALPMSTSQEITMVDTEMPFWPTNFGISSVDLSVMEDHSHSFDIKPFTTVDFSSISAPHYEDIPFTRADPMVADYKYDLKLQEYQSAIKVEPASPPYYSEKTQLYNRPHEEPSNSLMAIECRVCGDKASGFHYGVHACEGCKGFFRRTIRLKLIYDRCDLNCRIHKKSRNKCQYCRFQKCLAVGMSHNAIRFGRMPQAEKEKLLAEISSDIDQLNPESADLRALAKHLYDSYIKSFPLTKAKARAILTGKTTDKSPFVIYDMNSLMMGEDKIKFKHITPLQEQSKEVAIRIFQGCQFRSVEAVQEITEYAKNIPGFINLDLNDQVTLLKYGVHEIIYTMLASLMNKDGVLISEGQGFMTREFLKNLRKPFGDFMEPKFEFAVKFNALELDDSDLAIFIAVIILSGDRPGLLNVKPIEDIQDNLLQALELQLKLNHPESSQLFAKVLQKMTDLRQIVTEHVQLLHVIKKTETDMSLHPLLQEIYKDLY
Description: Agonist activity at mouse PPARgamma receptor by cell based transient transfection assay

[6] = target: T6, Peroxisome proliferator-activated receptor delta (Mus musculus, UniProt P35396)
T6 sequence (P35396 whole entry): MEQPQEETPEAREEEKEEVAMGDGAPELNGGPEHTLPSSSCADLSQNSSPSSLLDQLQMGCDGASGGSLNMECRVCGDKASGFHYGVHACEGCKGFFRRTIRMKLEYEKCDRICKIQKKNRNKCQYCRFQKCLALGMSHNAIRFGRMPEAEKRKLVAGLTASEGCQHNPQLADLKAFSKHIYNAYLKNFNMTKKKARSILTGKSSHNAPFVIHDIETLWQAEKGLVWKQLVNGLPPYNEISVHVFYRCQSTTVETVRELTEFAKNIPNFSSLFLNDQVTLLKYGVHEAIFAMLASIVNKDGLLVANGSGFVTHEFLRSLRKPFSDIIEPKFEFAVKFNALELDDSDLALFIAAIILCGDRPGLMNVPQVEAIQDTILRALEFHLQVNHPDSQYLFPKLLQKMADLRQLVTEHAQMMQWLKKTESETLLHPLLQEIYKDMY
Description: Agonist activity at mouse PPARdelta receptor by cell based transient transfection assay

[7] = target: T1, Peroxisome proliferator-activated receptor delta; remark: listed apart in the source
Description: as §1

[8] = AUC in CD rat at 5 mg/kg, po; type: ADME, organism-based; parameters: dose 5 mg/kg, route oral; conditions: plasma
[9] = Clearance in CD rat at […], iv and 5 mg/kg, po; type: ADME, organism-based; conditions: in vivo
[10] = Cmax in CD rat at […], iv and 5 mg/kg, po; type: ADME, organism-based; conditions: in vivo
Rattus norvegicus [11] = experiment: Decrease in insulin level in Zucker fatty (fa/fa) rat at 10 mg/kg, bid after 5 days; type: functional; parameters: scale not given: the % may be the effect or the level left
Rattus norvegicus [12] = experiment: Increase in liver weight in Zucker fatty (fa/fa) rat at 30 mg/kg, bid after 5 days; type: functional
[13] = Half life in CD rat at […], iv and 5 mg/kg, po; type: ADME, organism-based; conditions: in vivo
Rattus norvegicus [14] = experiment: Decrease in total triglyceride level in Zucker fatty (fa/fa) rat at 30 mg/kg, bid after 5 days; type: functional; parameters: scale not given: the % may be the effect or the level left
[15] = Volume of distribution at steady state in CD rat at […], iv and 5 mg/kg, po; type: ADME, organism-based; conditions: in vivo, read-out: Vdss
Rattus norvegicus [16] = experiment: Increase in liver weight in Zucker fatty (fa/fa) rat at 10 mg/kg, bid after 5 days; type: functional
[17] = Bioavailability in CD rat at […], iv and 5 mg/kg, po; type: ADME, organism-based; conditions: in vivo
Rattus norvegicus [18] = experiment: Decrease in total triglyceride level in Zucker fatty (fa/fa) rat at 10 mg/kg, bid after 5 days; type: functional; parameters: scale not given: the % may be the effect or the level left
Rattus norvegicus [19] = experiment: Decrease in insulin level in Zucker fatty (fa/fa) rat at 30 mg/kg, bid after 5 days; type: functional; parameters: scale not given: the % may be the effect or the level left

| Structure (SMILES) | EC50 [1] [µM] | EC50 [2] [µM] | EC50 [3] [µM] | other results |
| --- | --- | --- | --- | --- |
| COc1cc(CNC(=O)c2cc(-c3ccc(C(C)(C)C)cc3)n(C)n2)ccc1OC(C)(C)C(=O)O | > 25 | > 25 | 0.176 |  |
| CCn1nc(C(=O)NCc2ccc(OC(C)(C)C(=O)O)c(C)c2)cc1-c1ccc(C(C)(C)C)cc1 | > 25 | 0.01 | 0.015 | EC50 [4]: 2.26 µM; EC50 [5]: 0.036 µM; EC50 [6]: > 25 µM |
| CCn1nc(C(=O)NCc2ccc(OC(C)(C)C(=O)O)c(OC)c2)cc1-c1ccc(C(C)(C)C)cc1 | > 25 | > 25 | 0.19 |  |
| Cc1cc(CNC(=O)c2cc(-c3ccc(C(C)C)cc3)n(C)n2)ccc1OC(C)(C)C(=O)O | 4.85 |  | 0.008 | EC50 [4]: 0.28 µM; EC50 [5]: 0.016 µM; EC50 [6]: 7.1 µM |
| CCn1nc(-c2ccc(C(C)(C)C)cc2)cc1C(=O)NCc1ccc(OC(C)(C)C(=O)O)c(C)c1 | 2.7 | 0.05 | 0.03 |  |
| C=CCn1nc(C(=O)NCc2ccc(OC(C)(C)C(=O)O)c(C)c2)cc1-c1ccc(C(C)(C)C)cc1 |  |  |  | EC50 [4]: 6 µM; EC50 [5]: 0.15 µM; EC50 [6]: > 25 µM |
| Cc1cc(CNC(=O)c2cc(-c3ccc(N4CCCC4)cc3)n(C)n2)ccc1OC(C)(C)C(=O)O |  | 0.008 |  |  |
| C=CCOc1ccc(-c2cc(C(=O)NCc3ccc(OC(C)(C)C(=O)O)c(C)c3)nn2C)cc1 | > 25 |  |  |  |
| Cc1cc(CNC(=O)c2cc(-c3ccc(CC(C)C)cc3)nn2C)ccc1OC(C)(C)C(=O)O | 2.87 | 0.045 | 0.05 |  |
| Cc1cc(CNC(=O)c2cc(-c3ccc(C(C)(C)C)cc3)n(Cc3ccccc3)n2)ccc1OC(C)(C)C(=O)O | 25 | 0.2 |  |  |
| Cn1nc(-c2ccc(C(C)(C)C)cc2)cc1C(=O)NCc1ccc(OC(C)(C)C(=O)O)cc1 |  | 0.16 | 1 | EC50 [7]: 10 µM |
| COc1cc(CNC(=O)c2cc(-c3ccc(CC(C)C)cc3)n(C)n2)ccc1OC(C)(C)C(=O)O | > 25 | > 25 |  |  |
| Cc1cc(CNC(=O)c2cc(-c3ccc(C(C)(C)C)cc3)n(C)n2)ccc1OC(C)(C)C(=O)O | > 10 | 0.01 |  | AUC [8]: 1790 ng·h/mL; clearance [9]: 17 mL/min/kg; EC50 [4]: 0.64 µM; Cmax [10]: 1130 ng/mL; Activity (Rattus norvegicus [11]): 10%; Activity (Rattus norvegicus [12]): 14%; half-life [13]: 49.8 min; Activity (Rattus norvegicus [14]): 45%; Vd [15]: 0.3 L/kg; Activity (Rattus norvegicus [16]): 9%; bioavailability [17]: 22%; EC50 [5]: 0.011 µM; EC50 [6]: > 25 µM; Activity (Rattus norvegicus [18]): 57%; Activity (Rattus norvegicus [19]): 35% |
| Cc1cc(CNC(=O)c2cc(-c3ccc(N4CCOCC4)cc3)n(C)n2)ccc1OC(C)(C)C(=O)O | 0.035 | 0.085 | 0.11 |  |
| Cc1cc(CNC(=O)c2cc(-c3ccc(OCc4ccccc4)cc3)n(C)n2)ccc1OC(C)(C)C(=O)O | > 25 | > 25 | 0.08 |  |
| C=CCn1nc(-c2ccc(C(C)(C)C)cc2)cc1C(=O)NCc1ccc(OC(C)(C)C(=O)O)c(C)c1 |  | 0.045 | 0.06 |  |
| Cc1nc(-c2ccc(C(C)(C)C)cc2)sc1C(=O)NCc1ccc(OC(C)(C)C(=O)O)cc1 | 10 | 0.004 | 0.8 |  |
| Cc1cc(CNC(=O)c2cc(-c3ccc(-c4ccccc4C)cc3)n(C)n2)ccc1OC(C)(C)C(=O)O |  | 0.09 | 0.03 | EC50 [4]: 1.8 µM; EC50 [5]: 0.06 µM; EC50 [6]: > 25 µM |
| Cc1cc(CNC(=O)c2cc(-c3ccc(C(C)C)cc3)nn2C)ccc1OC(C)(C)C(=O)O | 1.36 | 0.02 | 0.05 |  |
